The subject of data set [1] is 142 cells, HFF1 cells, 143 carcinoma cells, HOS sarcoma cell line (FIG. 5). Nature of the data set: LIVE/DEAD kit, fluorescence microscopy of monolayers (FIG. 5, text). Format: cell-based. The settings on record: 10 μg/ml of peptide. From the text:
The LIVE/DEAD® Viability/Cytotoxicity kit employs a fluorescent dye to assess mammalian cell viability. Calcein AM and ethidium homodimer-1 (EthD-1) are found to be optimal dyes for this purpose. […] cells are distinguished from dead cells by the presence of intracellular esterase activity, determined by enzymatic conversion of non-fluorescen calcein AM to intensely fluorescent calcein. Calcein, which is a polyanionic dye, is well retained inside living cells producing an intense uniform green fluorescence. EthD-1 is excluded by intact membranes of viable cells, but it will enter cells with damaged cell membrane and bind to nucleic acids, producing a bright red fluorescence in dead cells. The protocol for using the live/dead kit is supplied by the manufacturer.
To quantify the cytotoxic action of Peptide 1, 20 000 cells were placed in 24 well multiwell dishes. […] After 1-3-6 hrs the cellular viability was assessed using the Molecular Probes LIVE/DEAD kit. […]
The cells were then observed using an inverted fluorescence microscope (Nikon Eclipse 2000E, Tokyo, Japan) equipped with FITC (green fluorescence) and TRITC (red fluorescence) filter optics. […] The proportion of viable cells (cells with green fluorescence) and the proportion of dead cells (red fluorescence) where then assessed by counting 100 cells. […]

In data set [2] the test system is normal human forskin fibroblasts (HFF1). The settings on record: 20 μg/ml, exposure for 90 minutes.
Protocol: MTT is a yellowish solution and is converted to water-insoluble MTT-formazan of dark blue colour by mitochondrial dehydrogenases of living cells. The blue crystals are solubilized with acidifies isopropanol and the intensity is measured colorimetrically at a wavelength of 570 nm (protocol for the MTT assay was used according to the manufacturer's instructions). Using a MTT cell viability assay, a comparison was made between normal human forskin fibroblasts (HFF1) and three cancer cell lines T986 (neuroblastoma cells), GaMG (glioblastoma), and A172 (glioblastoma).

Regarding “Ac-YGRKKRRQRRRGKTLRVAKAIYKRYIE-NH2 [Peptide 1]”, the “cytotoxic action (red cells)” value in data set [1] was “slight cytotoxic action”. The substance further displayed a surviving fraction in data set [2] of 58%.

Values taken from patent publication US9353156B2, “Oligopeptide compounds and uses thereof” (Cytovation AS, priority 2010, dated 2016).
